Source: US20110275569A1, “PROTEASES TARGETING AGENTS” (CONSIGLIO NAZIONALE DELLE RICERCHE, priority 2008, published 2011)
Read-outs that look alike come from different tables or passages of the source.

Key:
[1] = system: proteasome in Caco-2 (human colon carcinoma) cells; assay: Proteasome activity in Caco-2 cells treated with peptides for 48 h; assay type: cell-based; conditions: for proteasomal activity in Caco-2 cells (in words): differentiated Caco-2 cells
Method: (§1) The proteasome down-regulation via APEH inhibition has been investigated. On the basis of the hypothesis that APEH can be used as a target to indirectly control/modulate proteasome functions in tumoral cells, an in vitro approach using the SsCEI 2, SsCEI 3 and SsCEI 4 peptides in the Caco-2 (human colon carcinoma) cell line has been carried out. To this end, differentiated Caco-2 cells were treated with peptides or with a specific proteasome inhibitor (MG132), for 48 h. […] The results were compared to those obtained in the cell-free assays, where a purified proteasome fraction was used.

[2] = molecular target: T1, porcine acylamino-acid-releasing enzyme (AARE or APEH) (Sus scrofa, UniProt P19205); assay: Inhibition of porcine acylamino-acid-releasing enzyme; assay type: biochemical; conditions: for IC50: IC50 towards porcine acylamino-acid-releasing enzyme (AARE or APEH)
T1 sequence (P19205 1-732): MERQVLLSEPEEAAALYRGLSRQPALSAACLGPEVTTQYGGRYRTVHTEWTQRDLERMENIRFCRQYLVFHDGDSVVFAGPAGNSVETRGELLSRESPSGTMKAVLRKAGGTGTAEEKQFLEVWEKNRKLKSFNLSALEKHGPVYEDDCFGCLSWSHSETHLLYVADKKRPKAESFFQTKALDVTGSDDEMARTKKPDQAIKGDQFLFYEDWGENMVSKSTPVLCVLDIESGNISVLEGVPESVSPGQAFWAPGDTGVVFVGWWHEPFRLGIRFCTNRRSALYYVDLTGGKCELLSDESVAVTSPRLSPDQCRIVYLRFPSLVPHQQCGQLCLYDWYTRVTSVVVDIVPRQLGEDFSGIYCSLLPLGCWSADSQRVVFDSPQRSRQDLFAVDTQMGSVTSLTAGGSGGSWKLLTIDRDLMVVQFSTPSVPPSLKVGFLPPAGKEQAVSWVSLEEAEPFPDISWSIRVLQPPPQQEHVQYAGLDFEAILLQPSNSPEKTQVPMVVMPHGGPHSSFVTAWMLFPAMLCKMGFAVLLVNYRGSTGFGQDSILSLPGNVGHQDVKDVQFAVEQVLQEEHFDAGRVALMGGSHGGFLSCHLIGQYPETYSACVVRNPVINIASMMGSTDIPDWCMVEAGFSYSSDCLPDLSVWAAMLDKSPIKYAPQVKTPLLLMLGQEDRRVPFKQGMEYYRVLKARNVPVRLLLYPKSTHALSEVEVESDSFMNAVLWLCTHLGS
Method: The SsCEI 1 to 4 reported in the Example 1 were tested for ability to inhibit the activity of human acylamino-acid-releasing enzyme. Stock solutions (1 mM) of each lyophilized compounds were prepared in DMSO 100% and stored at 4° C. Inhibition effectiveness of each compound was determined by measuring enzyme activity both in the presence and absence of compounds. The activity of human acylamino-acid-releasing enzyme (AARE) was measured by using the chromogenic substrate N-acetyl-Ala-pNA (Bachem) (40 μM in DMSO 100%) as described above. […] Then, the substrate was added to the incubation mixture and the hydrolysis was performed for 20 min at 37° C. (FIG. 5). The data were fitted with the GraphPad Prism software. This analysis allowed the determination of IC50 values, which represent the concentrations at which the inhibition reached 50%. […] The IC50 values (See Table IV), obtained as average of 3-5 separate determinations, confirmed the utility of the compounds +of the present invention as effective AARE inhibitors.
The experiment described in example 7 has been performed using the porcine acylamino-acid-releasing enzyme. […] The efficiency of SsCEI 4 can be ascribed to the APEH preference for an alanine residue, with respect to the leucine, at the P1 site, assuming that the SsCEI-APEH association occurs in a substrate-like manner

Caco-2 cells = assay: Cytotoxicity by lactate dehydrogenase (LDH) activity in cell-culture media; assay type: cell-based, human; conditions: up to the highest concentration used (200 μM)
APEH in Caco-2 cells = assay: APEH activity in Caco-2 cells treated with peptides; assay type: cell-based, human; conditions: 48 h, dose-dependent decrease
Method: as §1

proteasome = assay: Cell-free proteasome assay with purified proteasome fraction; assay type: biochemical
Method: as §1

caspase-3 = assay: Caspase-3 activity after peptide treatment of Caco-2 cells; assay type: cell-based, human
Source text: To elucidate the molecular mechanisms associated with the inhibition of the proteasome, the effects of treatments with the SsCEI 2 and SsCEI 4 peptides on the activation of caspases have been evaluated.

Row | Substance | proteasomal activity in Caco-2 cells (in words) [1] | Ki [2] [µM] | IC50 [2] [µM] | cytotoxic effects, LDH activity levels in cell-culture media (Caco-2 cells) | residual APEH activity with respect to untreated cultures (APEH in Caco-2 cells) | proteasome activity in cell-free systems (proteasome) | residual proteasome activity with respect to untreated cultures ([1]; Caco-2 cells, dose-dependent decrease) | caspase-3 activity (caspase-3) | type of inhibition of porcine APEH ([2]; Lineweaver-Burk plot) | Ki ([2]; porcine APEH, Lineweaver-Burk plot, read-out: Ki APEH) [µM]
1 | H-YAIDTILAEIKNINAD-NH2 [SsCEI 3, YAIDTILAEIKNINAD] | unable to affect proteasome | 20 ± 0.4 | 20 ± 0.4 | – | – | – | – | – | – | –
2 | H-TILAEIKNINAD-NH2 [SsCEI 4, TILAEIKNINAD] | markedly reduced proteasomal activity | – | 35 ± 0.8 | not associated with any cytotoxic effects | up to 45% | did not affect proteasome activity | up to 45% | increased in a dose dependent manner | competitive inhibitor | 4 ± 0.8
3 | H-TILLEIKNINAD-NH2 [SsCEI 2, TILLEIKNINAD] | markedly reduced proteasomal activity | – | – | not associated with any cytotoxic effects | – | – | – | – | – | –
